BindingDB's records for doi:10.1021/jm0510934 (Abbott Laboratories, 2006)

Target: Growth hormone secretagogue receptor type 1 (Homo sapiens, UniProt Q92847)
Test: Receptor Binding Studies and GHS-R Ca2+ Flux Assay
Procedure: Specific binding was determined by incubation of membranes from GHS-R1a transfected CHO-K cells with 125I-His9-ghrelin in the presence of increasing concentrations of compounds to obtain IC50. Fluorescence emissions from 96 wells were measured simultaneously at excitation and emission wavelength of 488 and 520 nm, respectively. During this time, agonist responses in the absence of ghrelin, or the antagonist effects of compounds on ghrelin-stimulated calcium flux were recorded. Sigmoidal curves were fitted and EC50/IC50 values were determined by GraphPad Prism software.

Sequence of Growth hormone secretagogue receptor type 1 (Q92847 whole entry): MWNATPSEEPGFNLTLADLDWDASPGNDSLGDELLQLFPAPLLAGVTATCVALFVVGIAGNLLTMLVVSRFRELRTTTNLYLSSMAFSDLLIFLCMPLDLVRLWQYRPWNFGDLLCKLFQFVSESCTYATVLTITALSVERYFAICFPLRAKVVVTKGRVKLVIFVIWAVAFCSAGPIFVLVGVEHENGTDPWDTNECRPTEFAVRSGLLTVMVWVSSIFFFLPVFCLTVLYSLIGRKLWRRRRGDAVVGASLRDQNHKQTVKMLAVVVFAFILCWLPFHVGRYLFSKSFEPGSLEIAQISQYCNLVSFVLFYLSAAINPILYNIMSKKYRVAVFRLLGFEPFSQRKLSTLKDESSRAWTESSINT

Compound | IC50 (pH 7.4, 22 °C) [nM] | IC50 [nM] | IC50 (pH 7.4, 22 °C, read-out: IC50) [nM]
CC(=O)c1ccc(CNc2ccc(-c3c(N)nc(N)nc3COCc3ccccc3)cc2)cc1 [1-(4-{[(4-{2,4-diamino-6-[(benzyloxy)methyl]pyrimidin-5-yl}phenyl)amino]methyl}phenyl)ethan-1-one] | 10 |  | 
N#Cc1ccc(COc2ccc(-c3c(N)nc(N)nc3COCc3ccccc3)cc2)cc1 [2,4-diaminopyrimidine derivative, 10b] |  | 3610 | 
N#Cc1ccc(CNc2ccc(-c3c(N)nc(N)nc3COCc3ccccc3)cc2)cc1 [4-{[(4-{2,4-diamino-6-[(benzyloxy)methyl]pyrimidin-5-yl}phenyl)amino]methyl}benzonitrile] | 19 |  | 
CCc1nc(N)nc(N)c1-c1ccc(NCc2ccc(S(C)(=O)=O)cc2)c(Br)c1 [5-(3-bromo-4-{[(4-methanesulfonylphenyl)methyl]amino}phenyl)-6-ethylpyrimidine-2,4-diamine] |  | 42 | 
CCc1nc(N)nc(N)c1-c1ccc(NCc2ccnc(Cl)c2)cc1 [5-(4-{[(2-chloropyridin-4-yl)methyl]amino}phenyl)-6-ethylpyrimidine-2,4-diamine] | 220 |  | 
Nc1nc(N)c(-c2ccc(NCc3ccc(Cl)cc3)cc2)c(CCc2ccccc2)n1 [5-(4-{[(4-chlorophenyl)methyl]amino}phenyl)-6-(2-phenylethyl)pyrimidine-2,4-diamine] |  | 3350 | 
CCc1nc(N)nc(N)c1-c1ccc(NCc2csc(Cl)c2)cc1 [5-(4-{[(5-chlorothiophen-3-yl)methyl]amino}phenyl)-6-ethylpyrimidine-2,4-diamine] | 790 |  | 
Nc1nc(N)c(-c2ccc(NCc3ccnc(Cl)c3)cc2)c(COCc2ccccc2)n1 [6-[(benzyloxy)methyl]-5-(4-{[(2-chloropyridin-4-yl)methyl]amino}phenyl)pyrimidine-2,4-diamine] | 3.6 |  | 
Nc1nc(N)c(-c2ccc(NCc3ccc(Cl)cc3)cc2)c(COCc2ccccc2)n1 [6-[(benzyloxy)methyl]-5-(4-{[(4-chlorophenyl)methyl]amino}phenyl)pyrimidine-2,4-diamine] | 180 |  | 
COc1ccc(CNc2ccc(-c3c(N)nc(N)nc3COCc3ccccc3)cc2)cc1 [6-[(benzyloxy)methyl]-5-(4-{[(4-methoxyphenyl)methyl]amino}phenyl)pyrimidine-2,4-diamine] |  | 90 | 
Nc1nc(N)c(-c2ccc(NCc3ccc([N+](=O)[O-])cc3)cc2)c(COCc2ccccc2)n1 [6-[(benzyloxy)methyl]-5-(4-{[(4-nitrophenyl)methyl]amino}phenyl)pyrimidine-2,4-diamine] | 5.8 |  | 
Nc1nc(N)c(-c2ccc(NCc3ccc(C(F)(F)F)cc3)cc2)c(COCc2ccccc2)n1 [6-[(benzyloxy)methyl]-5-[4-({[4-(trifluoromethyl)phenyl]methyl}amino)phenyl]pyrimidine-2,4-diamine] | 97 |  | 
CC(C)(C)CNc1ccc(-c2c(N)nc(N)nc2COCc2ccccc2)cc1 [6-[(benzyloxy)methyl]-5-{4-[(2,2-dimethylpropyl)amino]phenyl}pyrimidine-2,4-diamine] |  | 700 | 
CCc1nc(N)nc(N)c1-c1ccc(NCc2ccc([N+](=O)[O-])cc2)cc1 [6-ethyl-5-(4-{[(4-nitrophenyl)methyl]amino}phenyl)pyrimidine-2,4-diamine] | 23 |  | 

Second part, the compound after the results:

IC50 (pH 7.4, 22 °C) [nM] | IC50 [nM] | IC50 (pH 7.4, 22 °C, read-out: IC50) [nM] | Compound
7.2 |  |  | CS(=O)(=O)c1ccc(CNc2ccc(-c3c(N)nc(N)nc3COCc3ccccc3)cc2)cc1
110 |  |  | CCc1nc(N)nc(N)c1-c1ccc(NCc2ccc(C(C)O)cc2)cc1 (stereo unspecified) [1-[4-({[4-(2,4-diamino-6-ethylpyrimidin-5-yl)phenyl]amino}methyl)phenyl]ethan-1-ol]
110 |  |  | CCc1nc(N)nc(N)c1-c1ccc(NCc2ccc(C(C)=O)cc2)cc1 [1-[4-({[4-(2,4-diamino-6-ethylpyrimidin-5-yl)phenyl]amino}methyl)phenyl]ethan-1-one]
780 |  |  | CCc1nc(N)nc(N)c1-c1ccc(NCc2ccc(C#N)cc2)cc1 [4-({[4-(2,4-diamino-6-ethylpyrimidin-5-yl)phenyl]amino}methyl)benzonitrile]
 | 11 |  | CCc1nc(N)nc(N)c1-c1ccc(NCc2ccc(S(C)(=O)=O)cc2)c(Cl)c1 [5-(3-chloro-4-{[(4-methanesulfonylphenyl)methyl]amino}phenyl)-6-ethylpyrimidine-2,4-diamine]
45 |  |  | CCc1nc(N)nc(N)c1-c1ccc(NCc2cc(F)c(S(C)(=O)=O)c(F)c2)cc1 [5-(4-{[(3,5-difluoro-4-methanesulfonylphenyl)methyl]amino}phenyl)-6-ethylpyrimidine-2,4-diamine]
1380 |  |  | CCc1nc(N)nc(N)c1-c1ccc(NCc2ccc(Cl)cc2)cc1 [5-(4-{[(4-chlorophenyl)methyl]amino}phenyl)-6-ethylpyrimidine-2,4-diamine]
 | 980 |  | Nc1nc(N)c(-c2ccc(NCc3ccccc3)cc2)c(COCc2ccccc2)n1 [5-[4-(benzylamino)phenyl]-6-[(benzyloxy)methyl]pyrimidine-2,4-diamine]
 | 16 |  | Nc1nc(N)c(-c2ccc(CNc3ccc([N+](=O)[O-])cc3)cc2)c(COCc2ccccc2)n1 [6-[(benzyloxy)methyl]-5-(4-{[(4-nitrophenyl)amino]methyl}phenyl)pyrimidine-2,4-diamine]
 | 320 |  | Nc1nc(N)c(-c2ccc(NCc3ccc(Cl)s3)cc2)c(COCc2ccccc2)n1 [6-[(benzyloxy)methyl]-5-(4-{[(5-chlorothiophen-2-yl)methyl]amino}phenyl)pyrimidine-2,4-diamine]
 | 170 |  | Nc1nc(N)c(-c2ccc(NCc3csc(Cl)c3)cc2)c(COCc2ccccc2)n1 [6-[(benzyloxy)methyl]-5-(4-{[(5-chlorothiophen-3-yl)methyl]amino}phenyl)pyrimidine-2,4-diamine]
85 |  | 1 | Nc1nc(N)c(-c2ccc(NCc3ccc(S(=O)(=O)C(F)(F)F)cc3)cc2)c(COCc2ccccc2)n1 [6-[(benzyloxy)methyl]-5-[4-({[4-(trifluoromethane)sulfonylphenyl]methyl}amino)phenyl]pyrimidine-2,4-diamine]
 | 48 |  | CS(=O)(=O)c1ccc(COc2ccc(-c3c(N)nc(N)nc3COCc3ccccc3)cc2)cc1 [6-[(benzyloxy)methyl]-5-{4-[(4-methanesulfonylphenyl)methoxy]phenyl}pyrimidine-2,4-diamine]
 | 86 |  | Nc1nc(N)c(-c2ccc(NCc3ccncc3)cc2)c(COCc2ccccc2)n1 [6-[(benzyloxy)methyl]-5-{4-[(pyridin-4-ylmethyl)amino]phenyl}pyrimidine-2,4-diamine]
 | 780 |  | Nc1nc(N)c(-c2ccc(NCc3cnc4ccccc4c3)cc2)c(COCc2ccccc2)n1 [6-[(benzyloxy)methyl]-5-{4-[(quinolin-3-ylmethyl)amino]phenyl}pyrimidine-2,4-diamine]
 | 120 |  | CCc1nc(N)nc(N)c1-c1ccc(CNc2ccc(S(C)(=O)=O)cc2)cc1 [6-ethyl-5-(4-{[(4-methanesulfonylphenyl)amino]methyl}phenyl)pyrimidine-2,4-diamine]
 | 32 |  | CCc1nc(N)nc(N)c1-c1ccc(N(C)Cc2ccc(S(C)(=O)=O)cc2)cc1 [6-ethyl-5-(4-{[(4-methanesulfonylphenyl)methyl](methyl)amino}phenyl)pyrimidine-2,4-diamine]
12 |  |  | CCc1nc(N)nc(N)c1-c1ccc(NCc2ccc(S(C)(=O)=O)cc2)cc1 [6-ethyl-5-(4-{[(4-methanesulfonylphenyl)methyl]amino}phenyl)pyrimidine-2,4-diamine]
 | 190 |  | CCc1nc(N)nc(N)c1-c1ccc(CNc2ccc([N+](=O)[O-])cc2)cc1 [6-ethyl-5-(4-{[(4-nitrophenyl)amino]methyl}phenyl)pyrimidine-2,4-diamine]
690 |  | 21 | CCc1nc(N)nc(N)c1-c1ccc(NCc2ccc(S(=O)(=O)C(F)(F)F)cc2)cc1 [6-ethyl-5-[4-({[4-(trifluoromethane)sulfonylphenyl]methyl}amino)phenyl]pyrimidine-2,4-diamine]
